We go through 2 molecules from patent US6774143B1, “Method for treating cells resistant to antineoplastic agents” (Novartis AG, priority 2003, dated 2004).

Data set [1] can be described thus: In vivo hollow fiber assay, body weight of the animals. Details: species or system mice. The conditions noted are these: both experiments. On the procedure:
Outbred athymic (nu/nu) female mice (“Chrls:Athymic Nude-nu”, Charles River Laboratories, Wilmington, Mass.) are anesthetized with ip injections of Ketamine/Xylazine (150 mg/kg, and 12 mg/kg body weight, respectively). For the subcutaneous implantation an 11-gauge trocar containing one or two hollow fibers is inserted into an incision made with scissors at the nape of the neck of an animal, and fibers are released by retracting the trocar while depressing the plunger. This procedure is repeated until all three hollow fibers are implanted. One wound clip is used to close the skin incision After the surgery each animal receives a single, subcutaneous injection of 0.4 mg/kg butorphenol to relieve any potential pain. Animals recover from the anesthesia on a heating pad, before retuning to their cages.
One day after the implantation (3 hollow fibers/animal, each hollow fiber containing one cell line: LS 174T, 1A9, and 1A9PTX22) animals are randomly sorted into five groups of six mice/group. […]
Discodermolide is isolated from the sponge Discodermia dissoluta using the method of Gunasekera SP (supra). Multiple batches of compound of similar purity (all>95% pure, as determined by mass spectrometry, and nuclear magnetic resonance analysis) are used throughout the various studies. […]

Data set [2] has as its system 1A9PTX22 cells (β-tubulin mutation). Briefly: In vitro cytotoxicity assay (MTT). The format is cell-based, human. On the procedure: 1A9 and 1A9PTX22 cells are plated in 96-well plates at 5×10^4 cells/well, plced in a tissue culture incubator and allowed to attach overnight. The next morning, the number of viable cells in the “time 0” plate (3 wells for each cell line) is determined using an MTT assay (Alley M C, et al., Cancer Res. 1988, 48:589-601).
At the same time drugs are added in serial, 10-fold dilutions, to the experimental plates. Corresponding vehicles are added to control plates. Experimental and control plates are then incubated in the tissue culture incubator for 72 hours. After the incubation the number of viable cells is determined in each plate using the MTT assay. IC50s (defined as a concentration of a given compound causing 50% inhibition of cell growth) are determined by comparing cell growth in the drug-treated plate (T−T0) to the cell growth in the corresponding control plate (C−T0). For each experiment results are calculated using average numbers from two sets of plates.
Discodermolide is isolated from the sponge Discodermia dissoluta using the method of Gunasekera SP (supra). Multiple batches of compound of similar purity (all>95% pure, as determined by mass spectrometry, and nuclear magnetic resonance analysis) are used throughout the various studies. For the in vitro cytotoxicity assays all compounds are dissolved in DMSO and are added to the plates with cells to obtain desired concentrations. […] Paclitaxel is purchased from Sigma/Aldrich, (St. Louis, Mo.). For the in vivo hollow fiber assay, solid discodermolide is dissolved in pure ethanol to create a stock solution which is diluted just before dosing with Cremophor EL and D5W to a final concentration of 16.7% Cremophor EL, 8.3% ethanol and 75% D5W. The compound is administered to mice as a single, 15 mg/kg iv injection. Positive control animals receive clinical formulations of paclitaxel (TAXOL) diluted 4-fold with D5W (12.5% Cremophor El, 12.5% ethanol and 75% D5W final concentrations) and administered iv, at 15 mg/kg, once daily for five consecutive days. Vehicle controls are administered according to the corresponding drug schedules.

Converted amounts (≈) assume the structure as drawn. Read-outs that look alike come from different tables or passages of the source.

`C=C/C=C\[C@H](C)[C@H](OC(N)=O)[C@@H](C)[C@H](O)[C@@H](C)C/C(C)=C\[C@H](C)[C@@H](O)[C@@H](C)/C=C\[C@@H](O)C[C@@H]1OC(=O)[C@H](C)[C@@H](O)[C@H]1C` [discodermolide, (+)-Discodermolide]: the body weight lost in data set [1] (discodermolide single 15 mg/kg iv) came out at 10%. Further, the IC50 (usually the midpoint of a concentration-inhibition curve) in data set [2] (1A9PTX22 cells, 72 hours, second experiment) stood at 3 ng/mL (≈ 0.00505 µM); in data set [2] (Homo sapiens, 1A9/ptx-22, 72 h), 3 ng/mL (≈ 0.00505 µM).

Consider `CC(=O)O[C@H]1C(=O)[C@@]2(C)[C@H]([C@H](OC(=O)c3ccccc3)[C@]3(O)C[C@H](OC(=O)[C@H](O)[C@@H](NC(=O)c4ccccc4)c4ccccc4)C(C)=C1C3(C)C)[C@]1(OC(C)=O)CO[C@@H]1C[C@@H]2O` [paclitaxel, reference compound], for which the body weight lost in data set [1] (paclitaxel iv 15 mg/kg once daily for 5 days) is 5%. The IC50 in data set [2] (Homo sapiens, 1A9/ptx-22, 72 h, 1A9PTX22 cells, 72 hours, first experiment, read-out: IC50) worked out at 15 ng/mL (≈ 0.0176 µM); in data set [2] (Homo sapiens, 1A9/ptx-22, 72 h, 1A9PTX22 cells, 72 hours, second experiment, read-out: IC50), 9 ng/mL (≈ 0.0105 µM). For the same molecule, the “fold resistance of 1A9PTX22 versus parental 1A9” value in data set [2] (from IC50s of the two in vitro experiments) worked out at 20 fold.
